Data published in paper PMC12298237 (Marine Drugs, 2025).
Where a SMILES comes first, the peptide text is derived from it. [ ]: non-standard residue; d: D form. The star is where a group is joined. Leu(ol) = CC(C)C[C@H](N)CO; dIva = CC[C@@](C)(N)C(=O)O; Octanoyl = CCCCCCCC(=O)*

How the values were obtained:
Type in all cases: cell-based, human
DLD-1 cells [1] = experiment: Colony formation assay; details: DLD-1, 9 or 18 μM, two weeks, crystal violet, vs untreated control, n = 3
Experimental: (§1) For colony formation assays, DLD-1 and HT-29 cells were seeded into 6-well plates at a density of 800 cells per well. […] The culture medium was refreshed every four days. After two weeks of continuous culture, colonies were fixed with 4% paraformaldehyde for 15 min and subsequently stained with crystal violet solution (Yuanye, Shanghai, China) for 20 min. Colony formation was quantified using ImageJ 1.54g software.

HT-29 cells [2] = experiment: Colony formation assay; details: HT-29, 9 or 18 μM, two weeks, crystal violet, vs untreated control, n = 3
Experimental: as §1

DLD-1 cells [3] = experiment: Cell cycle analysis by flow cytometry (PI); details: DLD-1, 24 h of exposure, in words
Experimental: (§2) Following treatment, cells were collected, washed, and fixed in 75% pre-chilled ethanol at −20 °C for 24 h. After fixation, cells were centrifuged, washed twice with cold PBS, and stained with propidium iodide (PI, 0.1 mg/mL) in the presence of RNase A (0.1 mg/mL) at 37 °C for 30 min. Cell cycle distribution was analyzed by flow cytometry (LSRFortessa, BD, Canton, MA, USA). To enhance the clarity of the results, cell populations were selectively gated using the ModFit LT 5.0 software.

HT-29 cells [4] = experiment: Cell cycle analysis by flow cytometry (PI); details: HT-29, 24 h of exposure, in words
Experimental: as §2

DLD-1 cells [5] = experiment: Calcein-AM/PI staining assay; details: DLD-1, 18 μM, 0, 6, 12 and 18 h, fluorescence microscopy
Experimental: (§3) For the Calcein-AM/PI staining assay, DLD-1 and HT-29 cells were seeded in 24-well plates at 5 × 10^4 cells per well. […] After incubation for 0, 6, 12, and 18 h, cells were stained by using the calcein AM (MedChem Express (Monmouth Junction, NJ, USA), 5 μM) and propidium iodide (MedChem Express, 50 μg/mL). The cells were incubated in the dark at 37 °C for 30 min, followed by imaging with an inverted fluorescence microscope.

HT-29 cells [6] = experiment: Calcein-AM/PI staining assay; details: HT-29, 18 μM, 0, 6, 12 and 18 h, fluorescence microscopy
Experimental: as §3

[7] = test system: phosphorylated ERK1/2 (p-ERK) in DLD-1 cells; experiment: Western blot of phosphorylated ERK1/2; details: DLD-1, 9 and 18 μM, 24 h
Experimental: (§4) Western blotting was performed as previously described. […] Cells were washed twice with PBS and lysed in RIPA buffer (Beyotime Biotechnology, Jiangsu, China) on ice for 30 min. Lysates were centrifuged at 12,000 rpm for 20 min at 4 °C, and the supernatant containing total protein was collected. Equal amounts of protein were separated by SDS-PAGE and transferred onto polyvinylidene fluoride (PVDF) membranes. Membranes were blocked with 5% non-fat milk at room temperature for 1 h, followed by incubation with the appropriate primary and secondary antibodies. Protein bands were visualized using the Omni-ECL Femto Light Chemiluminescence Kit (Epizyme, Shanghai, China) and imaged with the Amersham Imager 680 (Cytiva, Marlborough, MA, USA).

[8] = test system: phosphorylated ERK1/2 (p-ERK) in HT-29 cells; experiment: Western blot of phosphorylated ERK1/2; details: HT-29, 9 and 18 μM, 24 h
Experimental: as §4

CCCCCCCC(=O)NCC(=O)N[C@@H](Cc1ccccc1)C(=O)N[C@@H](CC(C)C)C(=O)N[C@](C)(CC)C(=O)N[C@@H](C)C(=O)N[C@@H](CC(C)C)C(=O)N[C@H](CO)CC(C)C [Compound 1, lipotrichaibol A] (Octanoyl-GFL[dIva]AL[Leu(ol)])
number of colony-forming cells (DLD-1 cells [1]): markedly reduced
number of colony-forming cells (HT-29 cells [2]): markedly reduced
proportion of cells in the G0/G1 phase (DLD-1 cells [3]): significant increase
proportion of cells in the G0/G1 phase (HT-29 cells [4]): significant increase
cell proliferation and dead cells (Calcein-AM/PI staining) (DLD-1 cells [5]): pronounced reduction in cell proliferation
cell proliferation and dead cells (Calcein-AM/PI staining) (HT-29 cells [6]): pronounced reduction in cell proliferation
levels of phosphorylated ERK1/2 (p-ERK) [7]: significantly reduced
levels of phosphorylated ERK1/2 (p-ERK) [8]: significantly reduced
